Measured values taken from ChEMBL document CHEMBL1130567, “A simplified template approach towards the synthesis of a potent beta-3 adrenoceptor agonist at the human receptor” (Bioorg Med Chem Lett, 1997).

What follows are compounds tested against T1, Beta-3 adrenergic receptor (Homo sapiens, UniProt P13945) (assay: Agonist efficacy for human Beta-3 adrenergic receptor expressed in chinese hamster ovary cells).
Type: functional, cell-based

T1 sequence (P13945 whole entry): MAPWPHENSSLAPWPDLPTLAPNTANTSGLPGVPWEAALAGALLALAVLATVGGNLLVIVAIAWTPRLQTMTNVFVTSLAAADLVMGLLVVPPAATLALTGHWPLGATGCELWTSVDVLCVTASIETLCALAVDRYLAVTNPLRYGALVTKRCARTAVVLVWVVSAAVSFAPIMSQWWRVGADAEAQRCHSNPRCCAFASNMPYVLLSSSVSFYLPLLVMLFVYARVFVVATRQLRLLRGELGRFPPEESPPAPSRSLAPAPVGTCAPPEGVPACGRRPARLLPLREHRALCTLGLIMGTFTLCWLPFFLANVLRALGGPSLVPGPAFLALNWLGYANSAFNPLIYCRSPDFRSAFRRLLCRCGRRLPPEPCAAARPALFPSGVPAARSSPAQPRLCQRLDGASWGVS

| EC50 [nM] | SMILES |
| --- | --- |
| 820 | COc1ccc(CCNC[C@@H](O)COc2ccc(O)c(O)c2)cc1 |
| 400 | COc1ccc(CCNC[C@@H](O)COc2ccc(O)c(NS(C)(=O)=O)c2)cc1 |
| 7900 | COc1ccc(CCNC[C@@H](O)COc2ccc(O)c(F)c2)cc1 |
| 2200 | COc1ccc(CCNC[C@@H](O)COc2cccc3[nH]c(=O)[nH]c23)cc1 |
| 120 | C[C@H](Cc1ccc(OCP(=O)(O)c2ccccc2)cc1)NC[C@H](O)COc1ccc(O)c(NS(C)(=O)=O)c1 |
| 560 | COc1ccc(CCNC[C@@H](O)COc2ccc(O)c3c2CCC(=O)N3)cc1 |
| 2000 | COc1ccc(CCNC[C@@H](O)COc2cccc(O)c2)cc1 |
| 1000 | COc1ccc(CCNC[C@@H](O)COc2ccc(O)cc2)cc1 |
| 290 | CCCCCCP(=O)(O)COc1ccc(CCNC[C@H](O)COc2ccc(O)c3c2CCC(=O)N3)cc1 |
| 4700 | COc1ccc(CCNC[C@@H](O)COc2ccc(O)c(CO)c2)cc1 |
| 1100 | COc1ccc(CCNC[C@@H](O)COc2ccc(F)c(O)c2)cc1 |
| 2000 | CC(C)(C)NCC(O)COc1cccc2[nH]c(=O)[nH]c12 (stereo unspecified) [CGP-12177] |

What follows are compounds tested against T1, Beta-3 adrenergic receptor (assay: Beta-3 agonist efficacy in an adenylate cyclase assay performed on chinese hamster ovary cells transfected with human Beta-3 adrenergic receptor; Inactive).
Type: functional, cell-based

| EC50 | SMILES |
| --- | --- |
| Not Active | COc1ccc(CCNC[C@H](O)COc2cccc(O)c2O)cc1 |

What follows are compounds tested against T1, Beta-3 adrenergic receptor (assay: Beta-3 agonist efficacy in an adenylate cyclase assay performed on chinese hamster ovary cells transfected with human Beta-3 adrenergic receptor; inactive).
Type: functional, cell-based

| EC50 | SMILES |
| --- | --- |
| Not Active | COc1ccc(CCNC[C@@H](O)COc2cccc3c2CCC(=O)N3)cc1 |
| Not Active | COc1ccc(CCNC[C@@H](O)COc2cc(O)cc(CO)c2)cc1 |
| Not Active | COc1ccc(CCNC[C@@H](O)COc2cccc3nc(O)ccc23)cc1 |
| Not Active | COc1ccc(CCNC[C@@H](O)COc2ccc3c(c2)NC(=O)CO3)cc1 |
| Not Active | COc1ccc(CCNC[C@@H](O)COc2ccc(O)cc2CO)cc1 |
| Not Active | COc1ccc(CCNC[C@@H](O)COc2ccc(F)c(CO)c2)cc1 |
| Not Active | COc1ccc(CCNC[C@@H](O)COc2cccc3[nH]c(C(F)(F)F)nc23)cc1 |
| Not Active | COc1ccc(CCNC[C@@H](O)COc2ccccc2O)cc1 |
